From patent EP0540143B1, “Compounds and methods for inhibition of HIV and related viruses” (priority 1991, dated 1993)

Columns and labels:
HIV virus = test: Test A (XTT), MT4 cells infected with HIV; assay type: cell-based; conditions: for inhibition at 10 µg/mL / inhibition at 100 µg/mL / inhibition at 1 µg/mL / inhibition at 0.1 µg/mL: Human immunodeficiency virus 1, MT4, Test A; for % inhibition: Test A
Method: (§1) Tests A, B, C, and D (XTT)
(§2) MT4 cells in a medium of RPMI 1640, 5% FCS, penicillin/streptomycin are adjusted to 2x10^5 cells/ml and seeded into microplates (96 wells/plate) 100 µl cell suspension/well giving 2x10^4 cells/well. The compound to be tested is made into a 10 mg/ml mixture in DMSO and stored at -20°C. The compound in DMSO is diluted with medium containing 10% DMSO in a 10-fold dilution series to give 1 mg/ml, 10 mg/ml, and […] solutions. Further dilutions to 400, 40, 4 and 0.4 mg/ml are made in medium containing microplates. Fifty µl of the 400, 40, and 4 mg/ml are transferred to the cell-containing microplates with a multi-channel pipette (final concentration: 100, 10, and 1 mg/ml). Finally, 50 µl of virus suspension is added to each well (with a repetitive "Eppendorf" multipipett). Each plate has at least six wells with the following: [Test A: HIV virus; Test B: HIV(II) virus; Test C: SIV virus; Test D: No virus]; with no drug (virus control) and six wells without virus (medium control). The plate is put into a plastic bag and incubated for six days in CO2 atmosphere. To each well in the plate is added 50 µl of XTT ((2,3-bis[2-methoxy-4-nitro-5-sulfophenyl]-5-[(phenylamino)carbonyl]-2H-tetrazolium hydroxide), (1 mg/ml 0.01-0.02 mM N-metyl-phenazonium methosulfate). After six hours of incubation in CO2 atmosphere the plates are covered with adhesive plate sealers and gently mixed on a vortex. Optical densities are determined at a wavelength of 450 nm and a reference wavelength of 650 nm. The percent reduction of cytotoxocity caused by the virus infection is calculated as follows: (OD450 compound - OD450 inf cells)/(OD450 uninf cells - OD450 inf cells)x 100 [formula]

recombinant HIV-RT = recombinant HIV-RT (Human immunodeficiency virus type 1 group M subtype B, UniProt P04585); test: Test I (HIVRT (rAdt)), direct inhibition of recombinant HIV-RT; assay type: biochemical
Method: The compounds were tested for direct inhibitory activity on HIV-RT in a volume of […] recombinant HIV-RT (diluted in virus disruption buffer to give 200.000 cpm).
100 mM Tris-HCl pH 7.6, 100 mM KCl, 4 mM MgCl2, 4 mM DTT, 275 mg/ml BSA, 0.5 mg (rA)n(dT)12-18 and 0.3 mM ^3H- dTTP (specific activity […]). After 60 minutess of incubation 40 ml in duplicate were spotted on paper discs and washed in 5% TCA. After rinsing the paper discs in ethanol they were dried and counted in scintillation fluid.

SIV virus = test: Test C (XTT), MT4 cells infected with SIV; assay type: cell-based; conditions: Simian immunodeficiency virus, MT4, Test C
Method: as §1, §2

HIV(II) virus = test: Test B (XTT), MT4 cells infected with HIV(II); assay type: cell-based; conditions: Human immunodeficiency virus 1, MT4, Test B
Method: as §1, §2

SMILES	inhibition at 10 µg/mL (HIV virus; 10 µg/ml)	inhibition at 100 µg/mL (HIV virus; 100 µg/ml)	inhibition at 0.1 µg/mL (recombinant HIV-RT)	inhibition at 1 µg/mL (recombinant HIV-RT)	inhibition at 10 µg/mL (recombinant HIV-RT; 10 µg/ml)	inhibition at 1 µg/mL (HIV virus; 1 µg/ml)	also measured
COc1ccc(CCNC(=S)Nc2nccs2)cc1OC	54%	0%	–	–	–	–	% inhibition (HIV virus; 10 µg/ml): 58%
S=C(NCCc1ccccc1)Nc1cc[nH]n1	0%	0%	1%	8%	38%	0%	–
CCOc1ccccc1CCNC(=S)Nc1nccs1	100%	100%	12%	30%	33%	96%	inhibition at 1 µg/mL (SIV virus): 0%; inhibition at 10 µg/mL (SIV virus): 5%; inhibition at 100 µg/mL (SIV virus): 0%; inhibition at 1 µg/mL (HIV(II) virus): 100%; inhibition at 10 µg/mL (HIV(II) virus): 91%; inhibition at 100 µg/mL (HIV(II) virus): 100%
S=C(NCCc1ccccc1)N1CCCCC1	0%	–	–	–	–	0%	inhibition at 0.1 µg/mL (HIV virus): 0%
CN1CCN(C(=S)NCCc2ccccc2)CC1	0%	0%	–	–	–	0%	–
S=C(NCCc1ccccc1)Nc1nc(-c2ccncc2)cs1	51%	–	–	–	–	32%	% inhibition (HIV virus; 1 µg/ml): 46%; % inhibition (HIV virus; 10 µg/ml): 65%
S=C(NCCc1ccccc1)Nc1ccccc1Cl	52%	0%	5%	31%	50%	0%	–
Fc1ccc(NC(=S)NCCc2ccccc2)cc1	41%	0%	–	–	–	5%	inhibition at 0.1 µg/mL (HIV virus): 0%; % inhibition (HIV virus; 10 µg/ml): 32%
Cc1cccc2sc(NC(=S)NCCc3ccccc3)nc12	28%	50%	12%	12%	24%	8%	–
CC(C)(C)c1csc(NC(=S)NCCc2ccccc2)n1	9%	0%	8%	8%	15%	0%	inhibition at 0.1 µg/mL (HIV virus): 0%
NS(=O)(=O)c1ccc(NC(=S)NCCc2ccccc2)cc1	22%	–	–	–	–	0%	inhibition at 0.1 µg/mL (HIV virus): 3%
CCCCCCCCCCCCCCc1sc(NC(=S)NCCc2ccccc2)nc1-c1ccc(Cl)cc1	0%	33%	1%	1%	1%	0%	–
Cc1nnc(NC(=S)NCCc2ccccc2)s1	38%	20%	1%	21%	18%	3%	–
S=C(NCCc1ccccc1)Nc1ncco1	0%	–	–	–	–	0%	inhibition at 0.1 µg/mL (HIV virus): 0%
S=C(NCCc1ccccc1)Nc1ccc(Cl)cc1	67%	0%	4%	29%	35%	17%	–
S=C(NCCc1ccccc1)Nc1nc(-c2ccc(Br)cc2)cs1	0%	30%	1%	1%	1%	0%	–
COC(=O)C(=O)c1csc(NC(=S)NCCc2ccccc2)n1	0%	0%	1%	1%	13%	0%	–

SMILES	inhibition at 10 µg/mL (HIV virus; 10 µg/ml)	inhibition at 100 µg/mL (HIV virus; 100 µg/ml)	inhibition at 0.1 µg/mL (recombinant HIV-RT)	inhibition at 1 µg/mL (recombinant HIV-RT)	inhibition at 10 µg/mL (recombinant HIV-RT; 10 µg/ml)	inhibition at 1 µg/mL (HIV virus; 1 µg/ml)	also measured
Cc1ccnc(NC(=S)NCCc2ccccc2)n1	64%	100%	9%	15%	9%	42%	inhibition at 1 µg/mL (SIV virus): 0%; inhibition at 10 µg/mL (SIV virus): 0%; inhibition at 100 µg/mL (SIV virus): 0%; inhibition at 1 µg/mL (HIV(II) virus): 0%; inhibition at 10 µg/mL (HIV(II) virus): 27%; inhibition at 100 µg/mL (HIV(II) virus): 100%
S=C(NCCc1ccccc1)N1CCCc2ccccc21	0%	–	–	–	–	0%	–
S=C(NCCc1ccccc1)Nc1cnc2ccccc2c1	71%	0%	–	–	–	0%	–
S=C(NCCc1ccccc1)Nc1cnccn1	100%	100%	1%	27%	36%	4%	inhibition at 1 µg/mL (SIV virus): 2%; inhibition at 10 µg/mL (SIV virus): 20%; inhibition at 100 µg/mL (SIV virus): 100%
S=C(NCCc1ccc(Cl)cc1)Nc1nccs1	79%	73%	–	–	–	–	% inhibition (HIV virus; 10 µg/ml): 93%; % inhibition (HIV virus; 100 µg/ml): 71%
Fc1cccc(Cl)c1CCNC(=S)Nc1nccs1	–	–	43%	77%	92%	100%	% inhibition (HIV virus; 1 µg/ml): 98%; % inhibition (HIV virus; 10 µg/ml): 52%
CCCCOC(=O)c1ccc(NC(=S)NCCc2ccccc2)cc1	0%	–	–	–	–	0%	inhibition at 0.1 µg/mL (HIV virus): 0%
S=C(NCCc1ccccc1)Nc1ccccn1	2%	6%	–	–	–	0%	–
CCOc1ccc2nc(NC(=S)NCCc3ccccc3)sc2c1	5%	33%	1%	5%	8%	0%	–
S=C(NCCc1ccccc1)N1CCOCC1	9%	–	–	–	–	13%	inhibition at 0.1 µg/mL (HIV virus): 0%
S=C(NCCc1ccccc1)Nc1ccccc1	25%	0%	1%	16%	16%	0%	–
S=C(NCCc1ccccc1)Nc1ncccn1	23%	22%	5%	12%	6%	0%	–
S=C(NCCc1ccccc1)Nc1nncs1	100%	100%	12%	14%	14%	100%	inhibition at 1 µg/mL (SIV virus): 0%; inhibition at 10 µg/mL (SIV virus): 17%; inhibition at 100 µg/mL (SIV virus): 0%; inhibition at 1 µg/mL (HIV(II) virus): 100%; inhibition at 10 µg/mL (HIV(II) virus): 57%; inhibition at 100 µg/mL (HIV(II) virus): 96%
CCc1nnc(NC(=S)NCCc2ccccc2)s1	7%	17%	12%	–	11%	0%	% inhibition (recombinant HIV-RT; 10 µg/ml): 17%
S=C(NCCc1ccccc1)NCc1ccco1	7%	–	7%	12%	10%	10%	inhibition at 0.1 µg/mL (HIV virus): 3%
S=C(NCCc1ccccc1)Nc1nc(-c2ccc(Cl)cc2)cs1	0%	18%	1%	1%	1%	0%	–
